According to patent US10874600B2, “Method for degrading bilirubin in skin” (The Procter & Gamble Company, priority 2018, dated 2020):

Assay: Bilirubin degradation assay
Type: biochemical
Details: for Avg. IB at pH 3.8 / Avg. IB at pH 7.4: 25 μg/mL IB, 24-hr incubation at room temperature, average of triplicate; for Δ IB (actual): pH 3.8 vs reference value (pH 7.4, 0% niacinamide leg); for Δ IB (predicted): predicted additive effect of niacinamide at pH 7.4 plus observed pH effect 2.323
Method: The bilirubin degradation assay provides an in vitro method of determining how a material or composition affects bilirubin degradation. Three replicates of each test sample are prepared in a 96-well plate (e.g., a FALCON brand 96-well tissue culture plate or equivalent) at a total volume of 250 μl/well. A stock of 250 ug/ml indirect bilirubin (i.e., the unconjugated form of bilirubin most commonly found in blood serum) is made by dissolving bilirubin powder (Cayman Chemicals Company, Catalog #17161) in DMSO (Sigma, Catalog # D8414-100 ml) to yield a stock solution at 10× working concentration. Working concentration of bilirubin is set at 25 ug/ml for every well except negative/vehicle control wells. […] The positive control wells may be prepared by mixing 25 ul of 250 ug/ml bilirubin stock solution and 225 ul PBS (AccuGENE, Catalog #51225). For negative/vehicle control wells, 25 ul DMSO is used in place of bilirubin. Test sample wells contain 25 ul of 250 ug/ml bilirubin stock solution, 200 ul PBS and 25 ul of each treatment solution made as 10× concentrate stock, e.g., for 0.1% Niacinamide treatment, a 10× concentrate stock is made at 1%.
The pH of each sample is adjusted using 1M HCl pH titration is performed separately before the experiment set up to determine how much 1M HCl is needed for each leg to achieve targeting pH level. 1500 ul of a master working solution of each testing leg was made without bilirubin to accommodate threshold volume need for pH adjustment. The master solution for the vehicle control wells contain 150 ul DMSO and 1350 ul of a mixture of 1M HCl and PBS. […] Bilirubin is unstable when exposed to ambient light. Thus, for bilirubin positive control well pre-titration, DMSO was used as surrogate for bilirubin. […] For pre-titration test sample wells, 1500 ul of master solution is made by mixing 150 ul DMSO (surrogate for bilirubin stock), 150 ul 10× treatment stock, and a 1200 ul mixture of 1M HCl and PBS. For actual experimental set up, make: 1350 ul pre-mix in triplicate for each leg, less either DMSO (for vehicle control leg) or bilirubin (for positive control and treatment legs) but with matching volume of all other ingredients as determined by pre-titration. Then for vehicle control leg, add 25 ul DMSO per well followed by adding in 225 ul of the pre-mix. For all other legs, add 25 ul of 250 ug/ml bilirubin stock made in DMSO per well followed by adding in 225 ul of corresponding pre-mix. […] The plate(s) containing the test samples are covered with aluminum foil and placed on top of a microplate shaker (VWR, Catalog #12620-938). Incubation was carried out at room temperature for 24-hr with constant shaking at 150 rpm. […] Commercially available bilirubin quantification kit (Cell Biolab, Catalog # MET-5010) was used for bilirubin quantification. The assay is based on the Jendrassik-Grof method in which diazotized sulfanilic acid reacts with bilirubin to form azobilirubin, the latter of which can be detected at an OD of 540 nm. A standard bilirubin curve is generated using the same bilirubin used for treatment and quantified.
Bilirubin concentrations of all testing legs are calculated using linear regression against the standard bilirubin curve. Resulting bilirubin concentrations are compared to neutral pH bilirubin reference leg. The difference in bilirubin quantification (A bilirubin) between the neutral-pH bilirubin reference leg and the low-pH niacinamide treated legs can be analyzed for predicted effect and actual effect.
The effect of niacinamide level on bilirubin degradation was tested at 0.1%, 0.5%, and 3%, by weight, based on the volume of the composition (w/v). A vehicle control is used in this Example as the negative control.

For `NC(=O)c1cccnc1` [niacinamide], the “Avg. IB at pH 3.8” value (0.1% (w/v) niacinamide) was 17.713 μg/mL, the “Avg. IB at pH 7.4” value (0.1% (w/v) niacinamide) was 20.851 μg/mL and the “Δ IB (actual)” value (0.1% (w/v) niacinamide) was 3.405. The “Δ IB (predicted)” value (0.1% (w/v) niacinamide) was 2.590, the “Avg. IB at pH 3.8” value (0.5% (w/v) niacinamide) was 14.231 μg/mL and the “Avg. IB at pH 7.4” value (0.5% (w/v) niacinamide) was 20.185 μg/mL. For the same compound, the “Δ IB (actual)” value (0.5% (w/v) niacinamide) was 6.887, the “Δ IB (predicted)” value (0.5% (w/v) niacinamide) was 3.256 and the “Avg. IB at pH 3.8” value (3% (w/v) niacinamide) was 9.585 μg/mL. For the same compound, the “Avg. IB at pH 7.4” value (3% (w/v) niacinamide) was 17.087 μg/mL, the “Δ IB (actual)” value (3% (w/v) niacinamide) was 11.533 and the “Δ IB (predicted)” value (3% (w/v) niacinamide) was 6.354. For the same compound, the “reduction in bilirubin in the low-pH composition compared with predicted” value (niacinamide in low-pH composition vs observed individual effects of pH and niacinamide level) was “much higher level than predicted”.
